{
  "source": "PubChem BioAssay (NCI)",
  "note": "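These data come from cells grown in 96-well plates and exposed to compound for 48 hours at five concentrations. TGI marks complete inhibition of growth.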",
  "data": [
    {"test_system": "SNB-19 CNS", "assay": "NCI anticancer screen, dose series, 48 h", "units": {"TGI": "µM"}, "values": [
      {"compound": "Cc1cc(OC(=O)Nc2cccc3ccccc23)c(C(C)C)cc1C(=S)Nc1ccccc1", "TGI": 71.3},
      {"compound": "Cc1[nH]c(=O)nc2sc(=NC3CCCCC3)n(C3CCCCC3)c(=O)c12", "TGI": "> 100"},
      {"compound": "C[C@]12c3c4cc(NC(=O)C(=O)NCc5ccc(-c6ccccn6)nc5)cc3Oc3cc(NC(=O)C(=O)NCc5ccc(-c6ccccn6)nc5)cc(c31)OC1C=C(NC(=O)C(=O)NCc3ccc(-c5ccccn5)nc3)C=C(O4)C12", "note": "(stereo partly specified)", "TGI": "> 100"},
      {"compound": "C/C(=N\\NC(N)=S)c1ccc2c(c1)Sc1ccccc1O2", "TGI": "> 100"},
      {"compound": "O=c1[nH]c(=O)c2c3n(cc2[nH]1)CCCCC3", "TGI": "> 100"},
      {"compound": "COc1ccc(C(C)NNC(=O)c2ccncc2)cc1OC", "note": "(stereo unspecified)", "TGI": "> 100"},
      {"compound": "C[C@]12[C@@H]3CC[C@H]1[C@@H](O)C(=O)N2CC3", "TGI": "> 100"},
      {"compound": "O=C(C(=O)n1ccc2ccccc21)n1ccc2ccccc21", "TGI": "> 100"},
      {"compound": "COc1ccc(NC(=S)c2ccc(CN3CCCCC3)s2)cc1", "TGI": 43.9},
      {"compound": "Cc1ccc(S[C@@H](C)[C@@](O)(CF)CN(Cc2ccccc2)C(=O)C(F)(F)F)cc1", "TGI": 55},
      {"compound": "CCN(CC)CCCNC(=O)c1cc(-c2nccn2C)nc2ccccc12", "TGI": "> 100"},
      {"compound": "COc1ccc2oc3c(C)cc4c(OC)nnc(OC)c4c3c2c1", "TGI": "> 100"},
      {"compound": "COc1ccc(S(=O)(=O)n2c3c(c4ccccc42)[C@@H]2[C@@H](CCCN2C(=O)CS(=O)c2ccc(C)cc2)[C@H](Cl)C3)cc1", "note": "(stereo partly specified)", "TGI": "> 100"},
      {"compound": "CCOC(=O)CCCSCCCC(=O)CCCSCCCC(=O)OCC", "TGI": "> 100"},
      {"compound": "CC(C)=C[C@H]1C[C@H](C)[C@H]2CC[C@H](C)c3c2c1c(C)c1ncoc31", "TGI": 32.3},
      {"compound": "COc1cccc(-c2cc(=O)c3cc(N4CCCCC4)ccc3[nH]2)c1", "TGI": "> 100"}
    ]},
    {"test_system": "NCI/ADR-RES ovarian", "assay": "NCI anticancer screen, dose series, 48 h", "units": {"TGI": "µM"}, "values": [
      {"compound": "COC(=O)CC(C)(NS(=O)c1ccc(C)cc1)c1ccccc1", "note": "(stereo unspecified)", "TGI": "> 100"},
      {"compound": "CCCCCCc1cc2cc(-c3cn4ccsc4n3)c(=O)oc2cc1O", "TGI": "> 100"},
      {"compound": "O=C(O)C1C2c3ccccc3C(c3ccccc32)C1C(=O)NCC1CC1", "note": "(stereo unspecified)", "TGI": "> 100"},
      {"compound": "COC(=O)[C@]1(C)CCC[C@@]2(C)C1CC[C@@]13C=C(C(C)C)[C@@H](CC1=O)CC23", "note": "(stereo partly specified)", "TGI": 67.5},
      {"compound": "O=c1c(F)cn(Cc2c(Cl)cccc2Cl)c(=O)n1Cc1c(Cl)cccc1Cl", "TGI": "> 31.6"},
      {"compound": "Cc1ccc(Nc2nc(NNC(=O)Cc3ccccc3)nc(NNC(=O)c3ccncc3)n2)cc1", "TGI": "> 10"},
      {"compound": "Cc1ccc2nc(-c3ccccc3)cc(=O)n2c1", "TGI": "> 100"},
      {"compound": "C=CCNC(=S)N/C=C(\\C#N)C(N)=O", "TGI": "> 100"},
      {"compound": "C=C1C(=O)O[C@@H]2/C=C(C)/C=C\\[C@@H]3O[C@@]3(C)C[C@@H](O)C12", "note": "(stereo partly specified)", "TGI": 33.4},
      {"compound": "O=c1[nH]c(=O)n(C2COC(CO)C2O)cc1F", "note": "(stereo unspecified)", "TGI": "> 100"},
      {"compound": "O=[N+]([O-])c1ccc2nc(Nc3ccccc3)c(Nc3ccccc3)nc2c1", "TGI": 6},
      {"compound": "COc1ccc(C2=CC(C(C)=C(C(N)=O)C(N)=O)C=C(c3ccc(Br)cc3)C2)c(OC)c1", "note": "(stereo unspecified)", "TGI": "> 100"},
      {"compound": "CC(C)(CN1CCCCC1)C(/C=C/c1ccc(Cl)cc1)=N\\NC(=O)N/N=C(/C=C/c1ccc(Cl)cc1)C(C)(C)CN1CCCCC1", "TGI": 29.4},
      {"compound": "CC(C)C(NC(=O)Oc1ccccc1)C(=O)NC1c2c(Br)sc(Br)c2C(=O)C1O", "note": "(stereo unspecified)", "TGI": 16.5},
      {"compound": "CSC(=O)c1sc(SC)[n+](-c2ccccc2)c1O", "TGI": "> 100"},
      {"compound": "CC1=NN(c2nc(N)nc(COc3ccc(N)cc3)n2)C(C)(C)C1", "TGI": "> 100"},
      {"compound": "Cc1cc(OC(=O)Nc2cccc3ccccc23)c(C(C)C)cc1C(=S)Nc1ccccc1", "TGI": 52.1},
      {"compound": "Cc1[nH]c(=O)nc2sc(=NC3CCCCC3)n(C3CCCCC3)c(=O)c12", "TGI": "> 100"},
      {"compound": "C[C@]12c3c4cc(NC(=O)C(=O)NCc5ccc(-c6ccccn6)nc5)cc3Oc3cc(NC(=O)C(=O)NCc5ccc(-c6ccccn6)nc5)cc(c31)OC1C=C(NC(=O)C(=O)NCc3ccc(-c5ccccn5)nc3)C=C(O4)C12", "note": "(stereo partly specified)", "TGI": "> 100"},
      {"compound": "C/C(=N\\NC(N)=S)c1ccc2c(c1)Sc1ccccc1O2", "TGI": 10.6},
      {"compound": "O=c1[nH]c(=O)c2c3n(cc2[nH]1)CCCCC3", "TGI": "> 100"},
      {"compound": "COc1ccc(C(C)NNC(=O)c2ccncc2)cc1OC", "note": "(stereo unspecified)", "TGI": "> 100"},
      {"compound": "C[C@]12[C@@H]3CC[C@H]1[C@@H](O)C(=O)N2CC3", "TGI": "> 100"},
      {"compound": "O=C(C(=O)n1ccc2ccccc21)n1ccc2ccccc21", "TGI": "> 100"},
      {"compound": "COc1ccc(NC(=S)c2ccc(CN3CCCCC3)s2)cc1", "TGI": 93.8},
      {"compound": "Cc1ccc(S[C@@H](C)[C@@](O)(CF)CN(Cc2ccccc2)C(=O)C(F)(F)F)cc1", "TGI": 69.5},
      {"compound": "CCN(CC)CCCNC(=O)c1cc(-c2nccn2C)nc2ccccc12", "TGI": "> 100"},
      {"compound": "COc1ccc2oc3c(C)cc4c(OC)nnc(OC)c4c3c2c1", "TGI": "> 100"},
      {"compound": "COc1ccc(S(=O)(=O)n2c3c(c4ccccc42)[C@@H]2[C@@H](CCCN2C(=O)CS(=O)c2ccc(C)cc2)[C@H](Cl)C3)cc1", "note": "(stereo partly specified)", "TGI": "> 100"},
      {"compound": "CCOC(=O)CCCSCCCC(=O)CCCSCCCC(=O)OCC", "TGI": "> 100"},
      {"compound": "CC(C)=C[C@H]1C[C@H](C)[C@H]2CC[C@H](C)c3c2c1c(C)c1ncoc31", "TGI": 32.4}
    ]},
    {"test_system": "HT29 colon", "assay": "NCI anticancer screen, dose series, 48 h", "units": {"TGI": "µM"}, "values": [
      {"compound": "COC(=O)CC(C)(NS(=O)c1ccc(C)cc1)c1ccccc1", "note": "(stereo unspecified)", "TGI": "> 100"},
      {"compound": "CCCCCCc1cc2cc(-c3cn4ccsc4n3)c(=O)oc2cc1O", "TGI": "> 100"},
      {"compound": "O=C(O)C1C2c3ccccc3C(c3ccccc32)C1C(=O)NCC1CC1", "note": "(stereo unspecified)", "TGI": "> 100"},
      {"compound": "COC(=O)[C@]1(C)CCC[C@@]2(C)C1CC[C@@]13C=C(C(C)C)[C@@H](CC1=O)CC23", "note": "(stereo partly specified)", "TGI": 40.5},
      {"compound": "O=c1c(F)cn(Cc2c(Cl)cccc2Cl)c(=O)n1Cc1c(Cl)cccc1Cl", "TGI": "> 31.6"},
      {"compound": "Cc1ccc(Nc2nc(NNC(=O)Cc3ccccc3)nc(NNC(=O)c3ccncc3)n2)cc1", "TGI": "> 10"},
      {"compound": "Cc1ccc2nc(-c3ccccc3)cc(=O)n2c1", "TGI": "> 100"},
      {"compound": "C=CCNC(=S)N/C=C(\\C#N)C(N)=O", "TGI": "> 100"},
      {"compound": "C=C1C(=O)O[C@@H]2/C=C(C)/C=C\\[C@@H]3O[C@@]3(C)C[C@@H](O)C12", "note": "(stereo partly specified)", "TGI": 26.2}
    ]}
  ]
}
